Reference: ChEMBL document CHEMBL5050850, “Compositions and methods of using the same for treatment of neurodegenerative and mitochondrial disease” (2020)

Key:
[1] = Induction of mitophagy in human HeLa MKYP cells treated with FCCP/oligomycin for 6 hrs and measured by FACS analysis; type: functional, cell-based
HeLa [2] = test: Cytotoxicity against human HeLa MKYP cells assessed as percentage of DAPI-positive cells at 50 uM and measured by DAPI staining method; type: toxicity, cell-based
HeLa [3] = test: Cytotoxicity against human HeLa MKYP cells assessed as cell death at 25 uM and measured DAPI staining method assay relative to control; type: toxicity, cell-based
HeLa [4] = test: Cytotoxicity against human HeLa MKYP cells assessed as cell death at 25 uM treated with FCCP/oliogmycin and measured DAPI staining method assay relative to control; type: toxicity, cell-based

Row | SMILES | EC50 [1] [µM] | Activity (HeLa [2]) [%] | Activity (HeLa [3]) [%] | Activity (HeLa [4]) [%]
1 | C[C@H](Nc1ncnc2[nH]c(C(F)(F)F)cc12)c1ccccc1 | 0.02 | 90.8 |  | 
2 | COc1ncc(CNc2ncnc3[nH]c(C(F)(F)F)cc23)cn1 | 10.6 | 5.8 |  | 
3 | CC(C)[C@@H](Nc1ncnc2[nH]c(C(F)(F)F)cc12)c1cncnc1 | 6.9 | 6.8 |  | 
4 | c1ccc(C2(Nc3ncnc4[nH]cnc34)CC2)cc1 | > 50 | 13.4 |  | 
5 | C[C@@H](Nc1nccc2[nH]cnc12)c1ccccc1 | > 50 | 7.6 |  | 
6 | COc1cc(CNc2ncnc3[nH]c(C4CC4)nc23)ccn1 | > 50 | 7.1 |  | 
7 | Cc1nc2c(N[C@H](C)c3ccccc3)ncnc2[nH]1 | > 50 | 9.7 |  | 
8 | Fc1cccc(CNc2ncnc3[nH]c(C(F)(F)F)cc23)c1Cl |  | 4.5 |  | 
9 | c1ncc(CNc2ncnc3[nH]cnc23)cn1 | 4.4 | 5.3 |  | 
10 | FC(F)(F)c1cc2c(NC3COCc4ccccc43)ncnc2[nH]1 (stereo unspecified) | > 50 | 42.9 |  | 
11 | CO[C@H]1COc2ccccc2[C@H]1Nc1ncnc2[nH]c(C(F)(F)F)cc12 | 13.3 | 3.6 | 2.49 | 3.555
12 | FC(F)(F)c1cc2c(NC3CCCc4ccccc43)ncnc2[nH]1 (racemic) | > 50 | 27.1 |  | 
13 | CO[C@@H]1COc2ccccc2[C@H]1Nc1ncnc2[nH]c(C(F)(F)F)cc12 | 6.3 | 10.6 | 2.61 | 10.645
14 | FC(F)(F)c1cc2c(NCc3cnccn3)ncnc2[nH]1 |  | 0.9 |  | 
15 | COc1ccccc1CNc1ncnc2[nH]c(C(F)(F)F)cc12 | 2 | 24.7 |  | 
16 | FC(F)(F)c1cc2c(NC3CCN(Cc4ccccc4)CC3)ncnc2[nH]1 | 21.4 | 43.9 |  | 
17 | Fc1cc(Cl)cc(CNc2ncnc3[nH]c(C(F)(F)F)cc23)c1 |  | 4.8 |  | 
18 | c1ccc2c(c1)OCC[C@@H]2Nc1ncnc2[nH]cnc12 | 1.69 | 17 |  | 
19 | CC(Nc1ncnc2[nH]c(C3CC3)nc12)c1ccccc1 (stereo unspecified) | 6.3 | 18.3 |  | 
20 | C[C@@H](Nc1ncnc2[nH]c(C(F)(F)F)cc12)c1cncnc1 | 21.6 | 22.9 |  | 
21 | COc1ccc2c(c1)[C@@H](Nc1ncnc3[nH]c(C(F)(F)F)cc13)CCC2 | 4 | 3.2 | 1.18 | 3.18
22 | COc1ccc(CNc2ncnc3[nH]c(C(F)(F)F)cc23)c(OC)c1 | 2.08 | 42.6 |  | 

Row | SMILES | EC50 [1] [µM] | Activity (HeLa [2]) [%] | Activity (HeLa [3]) [%] | Activity (HeLa [4]) [%]
23 | c1coc(CNc2ncnc3[nH]c(C4CCC4)nc23)c1 | > 50 | 3 |  | 
24 | CCCCNc1ncnc2[nH]c(C3CCC3)nc12 | > 50 | 6.1 |  | 
25 | C[C@@H](Nc1ncnc2[nH]c(C(F)(F)F)cc12)c1ccccc1 | 3.1 | 63.7 |  | 
26 | CO[C@@H]1COc2ccccc2[C@@H]1Nc1ncnc2[nH]c(C(F)(F)F)cc12 | 1.6 | 12.1 | 3.4 | 12.11
27 | C[C@H](Nc1ncnc2[nH]c(C3CC3)nc12)c1ccccc1 | 3.17 | 27.6 |  | 
28 | FC(F)(F)c1cc2c(N[C@H]3CCOc4ccccc43)ncnc2[nH]1 | 5.6 | 37.7 |  | 
29 | CC(=O)N1CCC(Nc2ncnc3[nH]c(C(F)(F)F)cc23)c2ccccc21 (stereo unspecified) | 17.3 | 6.9 | 2.69 | 6.92
30 | c1ccc2c(c1)OCC[C@H]2Nc1ncnc2[nH]cnc12 | > 50 | 16 |  | 
31 | OC[C@@H](Nc1ncnc2[nH]c(C(F)(F)F)cc12)c1ccccc1 | 4.4 | 30.3 |  | 
32 | Cc1nc2c(N[C@@H](C)c3ccccc3)ncnc2[nH]1 | 4.6 | 31.9 |  | 
33 | CC(CNc1ncnc2[nH]cnc12)c1ccccc1 (stereo unspecified) | 3.6 | 28.9 |  | 
34 | CN(C)C1CCC(CNc2ncnc3[nH]c(C(F)(F)F)cc23)CC1 (stereo unspecified) | > 50 | 5.2 |  | 
35 | CC(Nc1ncnc2[nH]cnc12)c1ccccc1 (stereo unspecified) | 2.69 | 18.2 |  | 
36 | CN1CCC(Nc2ncnc3[nH]c(C(F)(F)F)cc23)c2ccccc21 (stereo unspecified) | 1.81 | 28.1 |  | 
37 | FC(F)(F)c1cc2c(NCc3cncnc3)ncnc2[nH]1 | 11.7 | 1.7 |  | 
38 | COc1ncccc1CNc1ncnc2[nH]c(C(F)(F)F)cc12 |  | 7.6 |  | 
39 | C[C@H](Nc1ncnc2[nH]cnc12)c1ccccc1 | 2 | 11.7 |  | 
40 | c1coc(CNc2ncnc3[nH]cnc23)c1 [KINETIN] |  | 4.9 |  | 
41 | CCC(Nc1ncnc2[nH]c(C(F)(F)F)cc12)c1cncnc1 (stereo unspecified) | 18.8 | 15.9 |  | 
42 | FC(F)(F)c1cc2c(NCc3cccc(Cl)c3)ncnc2[nH]1 |  | 20.3 |  | 
43 | FC(F)(F)c1cc2c(NCc3ccncn3)ncnc2[nH]1 |  | 1.5 |  | 
44 | Clc1cccc(CNc2ncnc3nc[nH]c23)c1 | 16 | 12.5 |  | 

Row | SMILES | EC50 [1] [µM] | Activity (HeLa [2]) [%] | Activity (HeLa [3]) [%] | Activity (HeLa [4]) [%]
45 | OC[C@H](Nc1ncnc2[nH]c(C(F)(F)F)cc12)c1ccccc1 | 14.7 | 30.4 |  | 
46 | C[C@H](Nc1ncnc2[nH]c(C(F)(F)F)cc12)c1cncnc1 | 3.1 | 23.7 |  | 
47 | FC(F)(F)c1cc2c(NC3CCCc4ncncc43)ncnc2[nH]1 (stereo unspecified) | > 50 | 12 |  | 
48 | c1ncc(CNc2ncnc3[nH]c(C4CC4)nc23)cn1 | > 50 | 7.1 |  | 
49 | CCCCNc1ncnc2[nH]c(C(F)(F)F)c(C)c12 | > 50 | 11.9 |  | 
50 | FC(F)(F)c1cc2c(NC3CCOc4ccccc43)ncnc2[nH]1 (stereo unspecified) | 3.24 | 22.3 |  | 
51 | COc1ccccc1CNc1ncnc2nc[nH]c12 | 10.8 | 12.4 |  | 
52 | OC[C@@H](Nc1ncnc2[nH]cnc12)c1ccccc1 | > 50 | 8.9 |  | 
53 | c1ccc2c(c1)OCC2Nc1ncnc2[nH]cnc12 (stereo unspecified) | 6.1 | 21 |  | 
54 | O=S1(=O)Cc2ccccc2C(Nc2ncnc3[nH]c(C(F)(F)F)cc23)C1 (stereo unspecified) | > 50 | 13.2 |  | 
55 | OC[C@H](Nc1ncnc2[nH]cnc12)c1ccccc1 | 3.48 | 14.5 |  | 
56 | c1ccc2c(c1)CC[C@@H]2Nc1ncnc2[nH]cnc12 | 4.38 | 16.2 |  | 
57 | C[C@@H](Nc1ncnc2[nH]cnc12)c1ccccc1 | 47.4 | 10.1 |  | 
58 | FC(F)(F)c1cc2c(N[C@H]3COc4ccccc43)ncnc2[nH]1 | 1.4 | 22.8 |  | 
59 | CCCCNc1ncnc2c1cc(C(F)(F)F)n2C(C)=O | > 50 | 36.6 |  | 
60 | c1ccc(CCNc2ncnc3[nH]cnc23)cc1 | 2.26 | 19.7 |  | 
61 | c1ccc2c(c1)CC[C@H]2Nc1ncnc2[nH]cnc12 | > 50 | 10.3 |  | 
62 | FC(F)(F)c1cc2c(N[C@@H]3COc4ccccc43)ncnc2[nH]1 | 14.9 | 29.2 |  | 
63 | C[C@@H](Nc1ncnc2[nH]c(C3CC3)nc12)c1ccccc1 | > 50 | 12.3 |  | 
64 | CCCCNc1ncnc2[nH]c(C3CC3)nc12 | 18.8 | 16.2 |  | 
